Experimental data from patent US20070149552A1, “Lyophilized compositions of a triazolopyrimidine compound” (Wyeth, priority 2005, published 2007).

Assays:
[1] = system: xenograft models of human non-small cell lung cancer (NSCLC), colon cancer, breast cancer, melanoma, and glioblastoma; conditions: including models resistant to taxanes or other microtubule-active compounds; cited from earlier work
Solubility of the salt = type: physicochemical

In the case of `CNCCCOc1cc(F)c(-c2c(Cl)nc3ncnn3c2N[C@@H](C)C(F)(F)F)c(F)c1` [Compound Ia, 5-chloro-6-{2,6-difluoro-4-[3-(methylamino)propoxy]phenyl}-N-[(1S)-2,2,2-trifluoro-1-methylethyl][1,2,4]triazolo[1,5-a]pyrimidin-7-amine], the antitumor activity [1] is listed as “broad antitumor activity”.

In the case of `CNCCCOc1cc(F)c(-c2c(Cl)nc3ncnn3c2N[C@@H](C)C(F)(F)F)c(F)c1.O=C(O)CCC(=O)O` [succinate dihydrate salt of Compound Ia], the solubility (Solubility of the salt) is reported as “reasonable solubility”.
